# From paper PMC6930223 (Scientific Reports, 2019)
# Key:
# hERG1b = test: Immunofluorescence surface expression (CTCF/area) in HEK293-hERG1a/1b cells; type: cell-based, human; details: 24 h
# Experimental: (§1) Briefly, cells were first seeded onto 24 mm × 24 mm pre-coated glass cover slips (Leica Microsystems, Germany) in a 6 well plate containing 10% (v/v) FBS-complete DMEM medium. The sterile glass cover slips (Leica Microsystems, Germany) were coated with HistoGrip (Invitrogen, USA) before use. Cells were first cultured in fresh medium containing 0.5% (v/v) FBS for 4 h before replenishing with medium containing arsenic trioxide (positive control) or mitragynine for 24 h. Medium containing 0.1% (v/v) DMSO was used as control. After incubation, the monolayer cells were fixed with 4% (w/v) paraformaldehyde and incubated for 15 min at room temperature, followed by rinsing with PBST solution and incubating with 0.1% (v/v) Triton X-100 solution for 2 min. Subsequently blocking was performed with 3% (w/v) BSA for 1 h and followed by incubation with primary antibodies against hERG1a (1:1000) and hERG1b (1:125) at 4 °C overnight. Immunolabelling was carried out using anti-rabbit IgG F(ab’)2 Alexa Fluor® 488 molecular probes (Cell Signaling, USA) diluted at 1:250 in 3% (w/v) BSA at room temperature. Finally, the cover slips were mounted using Fluoroshield™ with DAPI (Sigma-Aldrich, USA) and viewed under 600x magnification using Nikon C2 confocal microscope (Nikon, USA). The excitation/emission wavelengths for Alexa Fluor 488 and DAPI were 488/512 nm and 405/488 nm respectively. The laser imaging settings such as laser power, gain and amplification factor were set to be similar for all samples. […] For each test sample, at least 20 cells were randomly selected from the 15 spots for quantitation. The green fluorescence intensity was quantified using ImageJ software (http://imagej.nih.gov/ij/)[72],[73]. Intensity was represented as the “corrected total cell fluorescence” (CTCF) per area using the equation “CTCF/area = [Integrated density - (Area of selected cell × Mean fluorescence of background readings)]/Area of selected cell”. Relative protein expression of hERG1a and hERG1b was determined by dividing the mean CTCF/area of treated cells to that of the untreated control. […]
# hERG1a [1] = test: as above; type: cell-based, human; details: 10 µM, 24 h, control 0.1% (v/v) DMSO
# Experimental: as §1
# hERG1a mRNA = test: RT-qPCR mRNA expression in HEK293-hERG1a/1b cells; type: cell-based, human; details: all concentrations, 24 h at 37 °C
# Experimental: (§2) Briefly, total cellular RNA was isolated from treated cells using RNeasy® Plus Mini kit (Qiagen, Germany) following manufacturer’s instruction. The optimized RT-qPCR assay was performed using CFX96™ real-time PCR system (Bio-Rad Laboratories Inc., USA) with the following cycle parameters: 10 min at 50 °C for reverse transcription, 1 min at 95 °C for activation of Taq polymerase, followed by 40 cycles of 10 s at 95 °C for denaturation and 30 s at 53.9 °C for annealing and data acquisition. Specifically, the assay was performed using 100 ng of total RNA and iTaq™ Universal SYBR® Green One-Step Kit (Bio-Rad Laboratories Inc., USA) in 10 µl of reaction volume. A melt curve analysis was computed at the end of the qPCR cycles to determine the specificity of the primers. The results were analyzed using CFX Manager software version 3.1 (Bio-Rad Laboratories Inc., USA). The mRNA expressions of hERG1a/1b were presented as fold changes normalized to endogenous reference genes, ACTB and GAPDH, and relative to the control gene[69]–[71]. Each experiment was conducted in triplicate and data are presented as mean fold changes of three independent experiments.
# hERG1b mRNA = test: RT-qPCR mRNA expression in HEK293-hERG1a/1b cells; type: cell-based, human; details: all concentrations, 24 h at 37 °C
# Experimental: as §2
# Hsp90 = test: Western blot of endogenous chaperone expression in HEK-hERG1a/1b cells; type: cell-based, human; details: exposure for 24 h
# Experimental: (§3) Total protein was isolated using RIPA lysis buffer system (Santa Cruz Biotechnology, Inc., USA). Equal amounts of protein samples were loaded onto 7.5% (v/v) polyacrylamide gels and were subsequently transferred to Immobilon®-P PVDF membrane (Millipore, USA) using Trans-Blot® Turbo™ Blotting System (Bio-Rad Laboratories, USA). Blots were blocked with 3% (w/v) skim milk for 1 h and probed with optimized primary antibodies against hERG1a (1:5000), hERG1b (1:1250), Hsp70 (1:10, 000), Hsp90 (1:5000) and β-actin (1:5000) overnight at 4 °C. Finally, the blots were then incubated in horseradish peroxidase (HRP) conjugated secondary antibody (1:1000) for 2.5 h followed by Clarity™ Western ECL substrate (Bio-Rad Laboratories, USA). The antibodies used for Western blotting were rabbit hERG1a polyclonal antibody (Enzo Life Sciences, USA), rabbit hERG1b polyclonal antibody (Enzo Life Sciences, USA), rabbit Hsc70/Hsp70 polyclonal antibody (Enzo Life Sciences, USA), rabbit Hsp90 polyclonal antibody (Enzo Life Sciences, USA), rabbit β-actin antibody (Cell Signaling, USA) and anti-rabbit IgG HRP-linked antibody (Cell Signaling, USA). Chemiluminescence signal was detected using ChemiDoc™ XRS Imaging System (Bio-Rad Laboratories, USA). Band densities were scanned and quantified using Image Lab Software (Bio-Rad Laboratories, USA). […]
# Hsp70 = test: as above; type: cell-based, human; details: exposure for 24 h
# Experimental: as §3
# hERG1a [2] = system: hERG1a; set-up: method as in PMID 27260674; details: read-out: IC50 in hERG1a-transfected HEK293 cells; cited from earlier work
# [3] = system: GIRK (G protein-coupled inward rectifier potassium) channels; set-up: method as in PMID 27260674; details: heterologous expression systems; cited from earlier work
# CYP2D6 = details: cited from earlier work
# [4] = system: rapidly delayed rectifier potassium current (IKr) in hiPSC-CMs; set-up: method as in PMID 25535742; details: cited from earlier work
# CYP1A2 = system: CYP1A2; set-up: method as in PMID 24174816, PMID 23274770; details: cited from earlier work
substance,measurement,setting,value
mitragynine,hERG1b fluorescence intensity,hERG1b; 1 µM,unaffected
same,hERG1b fluorescence intensity,hERG1b; 10 μM,unaffected
same,hERG1a fluorescence intensity vs control,hERG1a [1],significant reduction to approximately half of the intensity
same,effect on mRNA expression of hERG1a,hERG1a mRNA,did not affect
same,effect on mRNA expression of hERG1b,hERG1b mRNA,did not affect
same,Hsp90 levels,Hsp90,neither Hsp70 nor Hsp90 levels were significantly altered
same,Hsp70 levels,Hsp70,neither Hsp70 nor Hsp90 levels were significantly altered
same,IC50,hERG1a [2],1.62 µM
same,effect on GIRK channels,[3],inhibit
same,effect on CYP2D6,CYP2D6,potent inhibitory activity
same,action potential duration at 50 and 90% repolarization (APD50 and APD90),"[4]; 10 µM, hiPSC-CMs",significantly prolonged
same,IC50,[4]; read-out: IC50 of IKr suppression in hiPSC-CMs,0.91 µM
same,effect on CYP1A2 (induction),CYP1A2,inductive effect
